Measured values as given in PubChem BioAssay AID1963439 (Molecular Pharmacology Branch, DTP, NCI, 2024).

System: NCI-H196 complex spheroids with HUVEC/MSC, growth % T/C
Test: Anticancer human tumor NCI-H196 cell line growth inhibition [Asc];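 note: spheroids exposed to compound for 7 days before measurement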;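 for viability, T/C: 100% = DMSO vehicle control wells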
Details: for IC50: curve of first compound; for viability, T/C: stronger effect = lower value
How it was run: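 Complex solid-tumor spheroids incorporating human endothelial and mesenchymal stem cells received single agents or combinations over half-log dilution ranges anchored to clinical Cmax.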

[1] = second compound 0.1 µM, first compound 0.00316 µM
[2] = second compound 0.1 µM, first compound 0.01 µM
[3] = second compound 0.1 µM, first compound 0.0316 µM
[4] = second compound 0.1 µM, first compound 0.1 µM
[5] = second compound 0.1 µM, first compound 0.316 µM
[6] = second compound 0.1 µM, first compound 1 µM
[7] = second compound 0.316 µM, first compound 0.00316 µM
[8] = second compound 0.316 µM, first compound 0.01 µM
[9] = second compound 0.316 µM, first compound 0.0316 µM
[10] = second compound 0.316 µM, first compound 0.1 µM
[11] = second compound 0.316 µM, first compound 0.316 µM
[12] = second compound 0.316 µM, first compound 1 µM
[13] = second compound 1 µM, first compound 0.00316 µM
[14] = second compound 1 µM, first compound 0.01 µM
[15] = second compound 1 µM, first compound 0.0316 µM
[16] = second compound 1 µM, first compound 0.1 µM
[17] = second compound 1 µM, first compound 0.316 µM
[18] = second compound 1 µM, first compound 1 µM

Compound: CCN1CCN(Cc2ccc(Nc3ncc(F)c(-c4cc(F)c5nc(C)n(C(C)C)c5c4)n3)nc2)CC1 + Cc1c(S(C)(=O)=O)c(-c2cc(F)cc(N3CCN(c4ccc(NS(=O)(=O)c5ccc(NC(CCN6CCC(C(=O)OCCCP(=O)(O)O)CC6)CSc6ccccc6)c(S(=O)(=O)C(F)(F)F)c5)cc4)CC3)c2)c(-c2ccc(Cl)cc2)n1C(C)C
- IC50 (second compound 0.1 µM): > 1000 nM
- IC50 (second compound 0.316 µM): > 1000 nM
- IC50 (second compound 1 µM): > 1000 nM
- IC50 (second compound 3.16 µM): > 1000 nM
- IC50 (second compound 10 µM): > 1000 nM
- viability, T/C [1]: 101%
- viability, T/C [2]: 95.4%
- viability, T/C [3]: 101%
- viability, T/C [4]: 104%
- viability, T/C [5]: 102%
- viability, T/C [6]: 109%
- viability, T/C [7]: 94.1%
- viability, T/C [8]: 102%
- viability, T/C [9]: 92.6%
- viability, T/C [10]: 104%
- viability, T/C [11]: 104%
- viability, T/C [12]: 113%
- viability, T/C [13]: 92.2%
- viability, T/C [14]: 91.7%
- viability, T/C [15]: 92.2%
- viability, T/C [16]: 102%
- viability, T/C [17]: 104%
- viability, T/C [18]: 105%
- viability, T/C (second compound 3.16 µM, first compound 0.00316 µM): 90.2%
- viability, T/C (second compound 3.16 µM, first compound 0.01 µM): 88.8%
- viability, T/C (second compound 3.16 µM, first compound 0.0316 µM): 80.1%
- viability, T/C (second compound 3.16 µM, first compound 0.1 µM): 85.3%
- viability, T/C (second compound 3.16 µM, first compound 0.316 µM): 93.1%
- viability, T/C (second compound 3.16 µM, first compound 1 µM): 86%
- viability, T/C (second compound 10 µM, first compound 0.00316 µM): 77.2%
- viability, T/C (second compound 10 µM, first compound 0.01 µM): 76.2%
- viability, T/C (second compound 10 µM, first compound 0.0316 µM): 81.4%
- viability, T/C (second compound 10 µM, first compound 0.1 µM): 83.6%
- viability, T/C (second compound 10 µM, first compound 0.316 µM): 86.2%
- viability, T/C (second compound 10 µM, first compound 1 µM): 80.8%

Compound: CCN1CCN(Cc2ccc(Nc3ncc(F)c(-c4cc(F)c5nc(C)n(C(C)C)c5c4)n3)nc2)CC1 + CNC(C)C(=O)NC1CN(S(=O)(=O)c2cccc(S(=O)(=O)N3CCC4CCC(C(=O)NC(c5ccccc5)c5ccccc5)N4C(=O)C(NC(=O)C(C)NC)C3)c2)CCC2CCC(C(=O)NC(c3ccccc3)c3ccccc3)N2C1=O
- IC50 (second compound 0.01 µM): < 3.16 nM
- IC50 (second compound 0.0316 µM): < 3.16 nM
- IC50 (second compound 0.1 µM): < 3.16 nM
- IC50 (second compound 0.316 µM): < 3.16 nM
- IC50 (second compound 1 µM): < 3.16 nM
- viability, T/C (second compound 0.01 µM, first compound 0.00316 µM): 5.3%
- viability, T/C (second compound 0.01 µM, first compound 0.01 µM): 6.9%
- viability, T/C (second compound 0.01 µM, first compound 0.0316 µM): 9.46%
- viability, T/C (second compound 0.01 µM, first compound 0.1 µM): 7.15%
- viability, T/C (second compound 0.01 µM, first compound 0.316 µM): 6.5%
- viability, T/C (second compound 0.01 µM, first compound 1 µM): 5.95%
- viability, T/C (second compound 0.0316 µM, first compound 0.00316 µM): 4.57%
- viability, T/C (second compound 0.0316 µM, first compound 0.01 µM): 4.1%
- viability, T/C (second compound 0.0316 µM, first compound 0.0316 µM): 3.84%
- viability, T/C (second compound 0.0316 µM, first compound 0.1 µM): 4.62%
- viability, T/C (second compound 0.0316 µM, first compound 0.316 µM): 6.92%
- viability, T/C (second compound 0.0316 µM, first compound 1 µM): 5.07%
- viability, T/C [1]: 3.7%
- viability, T/C [2]: 4.39%
- viability, T/C [3]: 3.41%
- viability, T/C [4]: 3.01%
- viability, T/C [5]: 4.87%
- viability, T/C [6]: 3.86%
- viability, T/C [7]: 2.69%
- viability, T/C [8]: 4.01%
- viability, T/C [9]: 3.79%
- viability, T/C [10]: 4.21%
- viability, T/C [11]: 3.33%
- viability, T/C [12]: 3.67%
- viability, T/C [13]: 2.84%
- viability, T/C [14]: 3.75%
- viability, T/C [15]: 3.08%
- viability, T/C [16]: 3.26%
- viability, T/C [17]: 3.93%
- viability, T/C [18]: 3.85%

Compound: Cn1ncnc1[C@H]1c2n[nH]c(=O)c3cc(F)cc(c23)N[C@@H]1c1ccc(F)cc1 + CCN1C(C(=O)NC23CCC(C(=O)O)(CC2)CC3)C(c2cccc(Cl)c2F)C2(C(=O)Nc3cc(Cl)ccc32)C12CCCCC2
- IC50 (second compound 0.03 µM): > 100 nM
- IC50 (second compound 0.0949 µM): > 100 nM
- IC50 (second compound 0.3 µM): > 100 nM
- IC50 (second compound 0.949 µM): > 100 nM
- IC50 (second compound 3 µM): > 100 nM
- viability, T/C (second compound 0.03 µM, first compound 0.000316 µM): 107%
- viability, T/C (second compound 0.03 µM, first compound 0.001 µM): 109%
- viability, T/C (second compound 0.03 µM, first compound 0.00316 µM): 107%
- viability, T/C (second compound 0.03 µM, first compound 0.01 µM): 108%
- viability, T/C (second compound 0.03 µM, first compound 0.0316 µM): 107%
- viability, T/C (second compound 0.03 µM, first compound 0.1 µM): 104%
- viability, T/C (second compound 0.0949 µM, first compound 0.000316 µM): 118%
- viability, T/C (second compound 0.0949 µM, first compound 0.001 µM): 125%
- viability, T/C (second compound 0.0949 µM, first compound 0.00316 µM): 114%
- viability, T/C (second compound 0.0949 µM, first compound 0.01 µM): 102%
- viability, T/C (second compound 0.0949 µM, first compound 0.0316 µM): 114%
- viability, T/C (second compound 0.0949 µM, first compound 0.1 µM): 109%
- viability, T/C (second compound 0.3 µM, first compound 0.000316 µM): 118%
- viability, T/C (second compound 0.3 µM, first compound 0.001 µM): 128%
- viability, T/C (second compound 0.3 µM, first compound 0.00316 µM): 119%
- viability, T/C (second compound 0.3 µM, first compound 0.01 µM): 121%
- viability, T/C (second compound 0.3 µM, first compound 0.0316 µM): 113%
- viability, T/C (second compound 0.3 µM, first compound 0.1 µM): 112%
- viability, T/C (second compound 0.949 µM, first compound 0.000316 µM): 139%
- viability, T/C (second compound 0.949 µM, first compound 0.001 µM): 138%
- viability, T/C (second compound 0.949 µM, first compound 0.00316 µM): 120%
- viability, T/C (second compound 0.949 µM, first compound 0.01 µM): 118%
- viability, T/C (second compound 0.949 µM, first compound 0.0316 µM): 112%
- viability, T/C (second compound 0.949 µM, first compound 0.1 µM): 126%
- viability, T/C (second compound 3 µM, first compound 0.000316 µM): 124%
- viability, T/C (second compound 3 µM, first compound 0.001 µM): 136%
- viability, T/C (second compound 3 µM, first compound 0.00316 µM): 132%
- viability, T/C (second compound 3 µM, first compound 0.01 µM): 129%
- viability, T/C (second compound 3 µM, first compound 0.0316 µM): 131%
- viability, T/C (second compound 3 µM, first compound 0.1 µM): 121%
